The test system of assay [1] is Botrytis cinerea. The experiment in a line: Eggplant grey mold. The settings on record: inoculated 24 h later, rated after 3-4 days; for Disease Control Rating at 500 ppm: eggplant sprayed with 500 ppm; for Disease Control Rating at 20 ppm: eggplant sprayed with 20 ppm; for Disease Control Rating at 100 ppm: eggplant sprayed with 100 ppm. The class given is in vivo. On the set-up: scale not given here. Summed up:
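Protective test: compound formulations (2:3 acetone:water, 0.5% Tween 20; 500, 100 or 20 ppm) sprayed on 14-18-day-old plants, with spore inoculum (4×10^6 spore/mL) applied a day later. Disease control rated on Botrytis lesions after 3-4 days at 23 °C and 100% humidity.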

A further assay has as its target T1, succinate dehydrogenase (Botrytis cinerea, UniProt A0A384J5E4+A0A384J8V8+A0A384JHJ5).
T1 construct: succinate-DCPIP reductase assay with KCN
The experiment in a line: Enzyme inhibition: succinate dehydrogenase activity in Botrytis cinerea mitochondria (DCPIP reduction). The settings on record: concentration required to inhibit the rate of DCPIP reduction by 50%; Botrytis cinerea isolate Nick mitochondria; read-out: I50 (μM conc.). The class given is biochemical. The method in brief:
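DCPIP (45 μM) reduction at 600 nm tracked with 17 mM succinate, 1 mM KCN and 50 mM potassium phosphate, pH 7.2. Compounds were added in acetone (final 1% v/v), and Botrytis cinerea isolate Nick mitochondrial fraction initiated the reaction. Rates minus endogenous activity gave percentage inhibition, plotted semilog against concentration to derive I50 (μM).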

For the next assay, the system named is Rhizoctonia solani. Description: Rice sheath blight. More on the design: scale not given here. It is filed as in vivo. The settings on record: inoculated two days later, rated after 7 days, average of five plants; for Disease Control Rating at 0.5 mg/mL: foliage and soil sprayed with 0.5 mg/mL; for Disease Control Rating at 0.02 mg/mL: foliage and soil sprayed with 0.02 mg/mL; for Disease Control Rating at 0.1 mg/mL: foliage and soil sprayed with 0.1 mg/mL. The method in brief:
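Preventive test: R. solani inoculum on rice grain was applied at the plant base two days after spraying foliage and soil with Compound A (0.5, 0.1 or 0.02 mg/mL, water/acetone/Tween 20). Plants aged 11–15 days stood in flood trays; after 7 days at 25 °C and high humidity, disease control was rated against untreated plants, five plants averaged.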

Assay [2] deals with Botrytis cinerea. The experiment in a line: Vine grey mold (grape berries). It is filed as in vivo. The settings on record: average of six berries, 7-10 days; for pest or weed control at 50 ppm: grape berries treated with 50 ppm, read-out: % DISEASE CONTROL 50 ppm; for pest or weed control at 200 ppm: grape berries treated with 200 ppm, read-out: % DISEASE CONTROL 200 ppm. The method in brief:
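Preventive berry test: compound at 50 or 200 ppm (acetone/water, 0.05% Tween 20) applied one day before inoculation with 10^6 spores/mL Botrytis conidia. After 7-10 days at 20 °C under 12 h light, infected surface area rated; disease control expressed as percent reduction from control mean; repeated-test values averaged.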

T1 sequence (A0A384J5E4 1-300): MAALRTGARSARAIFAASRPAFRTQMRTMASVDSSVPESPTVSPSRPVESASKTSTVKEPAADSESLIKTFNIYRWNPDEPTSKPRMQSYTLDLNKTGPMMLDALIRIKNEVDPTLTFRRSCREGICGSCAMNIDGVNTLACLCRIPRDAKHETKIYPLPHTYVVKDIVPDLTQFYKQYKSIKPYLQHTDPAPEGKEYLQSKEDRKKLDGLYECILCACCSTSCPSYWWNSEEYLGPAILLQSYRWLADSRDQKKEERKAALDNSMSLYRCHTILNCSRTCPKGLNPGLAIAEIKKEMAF
T1 sequence (A0A384J8V8 1-189): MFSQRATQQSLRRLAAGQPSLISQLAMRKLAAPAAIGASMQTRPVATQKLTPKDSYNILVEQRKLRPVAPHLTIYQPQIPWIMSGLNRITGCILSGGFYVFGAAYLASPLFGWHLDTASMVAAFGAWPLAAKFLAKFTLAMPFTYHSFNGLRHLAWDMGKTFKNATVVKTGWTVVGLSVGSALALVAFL
T1 sequence (A0A384JHJ5 1-192): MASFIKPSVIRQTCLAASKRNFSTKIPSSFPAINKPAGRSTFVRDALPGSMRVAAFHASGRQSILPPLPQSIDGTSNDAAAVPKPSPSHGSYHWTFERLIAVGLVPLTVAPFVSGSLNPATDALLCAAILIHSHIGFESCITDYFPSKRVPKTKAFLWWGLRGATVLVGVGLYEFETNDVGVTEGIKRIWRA
T1 sequence (A0A384K456 1-647 partner): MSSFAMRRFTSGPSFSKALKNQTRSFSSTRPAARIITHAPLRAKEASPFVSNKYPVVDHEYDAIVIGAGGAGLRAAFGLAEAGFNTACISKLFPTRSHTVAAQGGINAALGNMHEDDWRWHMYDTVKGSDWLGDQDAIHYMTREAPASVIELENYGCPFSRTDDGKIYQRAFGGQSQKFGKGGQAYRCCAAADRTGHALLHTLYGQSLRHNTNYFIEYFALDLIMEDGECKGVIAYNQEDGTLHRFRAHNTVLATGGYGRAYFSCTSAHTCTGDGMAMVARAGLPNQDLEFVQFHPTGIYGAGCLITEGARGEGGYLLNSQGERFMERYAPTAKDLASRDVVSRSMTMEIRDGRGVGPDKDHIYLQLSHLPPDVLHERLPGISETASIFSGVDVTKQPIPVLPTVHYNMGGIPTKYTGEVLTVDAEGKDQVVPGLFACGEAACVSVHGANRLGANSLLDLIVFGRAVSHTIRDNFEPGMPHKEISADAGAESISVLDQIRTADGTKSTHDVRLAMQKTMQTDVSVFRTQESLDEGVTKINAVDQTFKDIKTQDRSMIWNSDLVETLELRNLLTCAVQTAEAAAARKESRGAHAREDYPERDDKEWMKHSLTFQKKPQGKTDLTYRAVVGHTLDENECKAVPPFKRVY

Consider `Cn1cc(C(=O)Nc2ccccc2C2CCCC2)c(C(F)(F)F)n1` [Example 8, 1H-pyrazole-4-carboxamide, N-(2-cyclopentylphenyl)-1-methyl-3-(trifluoromethyl)-], for which the “Disease Control Rating at 500 ppm” value in the assay on Botrytis cinerea [1] is on record as 0. On succinate dehydrogenase, the IC50 was 0.016 µM. Further, the “Disease Control Rating at 0.5 mg/mL” value in the assay on Rhizoctonia solani was 0. Further, in the assay with Botrytis cinerea [2], the pest or weed control at 50 ppm came to 37% and the pest or weed control at 200 ppm was 83%.
Consider `Cn1cc(C(=O)Nc2ccccc2C2CCCCC2)c(Cl)n1` [Example 50, 1H-pyrazole-4-carboxamide, 3-chloro-N-(2-cyclohexylphenyl)-1-methyl-], for which, in the assay on Botrytis cinerea [1], the “Disease Control Rating at 500 ppm” value is recorded as 0. Also, the IC50 at succinate dehydrogenase stood at 0.098 µM. Further, in the assay on Rhizoctonia solani, the “Disease Control Rating at 0.02 mg/mL” value is reported as 0, the “Disease Control Rating at 0.1 mg/mL” value came out at 0 and the “Disease Control Rating at 0.5 mg/mL” value was found to be 2. In the assay on Botrytis cinerea [2], the pest or weed control at 50 ppm was determined as 8% and the pest or weed control at 200 ppm came out at 22%.
For the molecule `Cn1cc(C(=O)Nc2ccccc2C2CCCCCC2)c(Br)n1` [Example 63, 1H-pyrazole-4-carboxamide, 3-bromo-N-(2-cycloheptylphenyl)-1-methyl-], the “Disease Control Rating at 500 ppm” value in the assay with Botrytis cinerea [1] is 1. For the same molecule, on succinate dehydrogenase, the IC50 came to 0.0063 µM. In the assay with Rhizoctonia solani, the “Disease Control Rating at 0.02 mg/mL” value is recorded as 2, the “Disease Control Rating at 0.1 mg/mL” value was 3 and the “Disease Control Rating at 0.5 mg/mL” value is on record as 3. In addition, in the assay on Botrytis cinerea [2], the pest or weed control at 50 ppm is 34% and the pest or weed control at 200 ppm amounted to 65%.
For the molecule `Cn1cc(C(=O)Nc2ccccc2[C@@H]2C[C@H]3CC[C@@H]2C3)c(Br)n1` (relative stereo) [Example 65, 1H-pyrazole-4-carboxamide, N-(2-bicyclo[2.2.1]hept-2-ylphenyl)-3-bromo-1-methyl-, exo-], in the assay with Botrytis cinerea [1], the “Disease Control Rating at 20 ppm” value is 0, the “Disease Control Rating at 100 ppm” value was 1 and the “Disease Control Rating at 500 ppm” value came out at 2. In addition, on succinate dehydrogenase, the IC50 amounted to 0.011 µM. Further, in the assay on Rhizoctonia solani, the “Disease Control Rating at 0.02 mg/mL” value worked out at 2, the “Disease Control Rating at 0.1 mg/mL” value is reported as 3 and the “Disease Control Rating at 0.5 mg/mL” value stood at 3. In the assay with Botrytis cinerea [2], the pest or weed control at 50 ppm was determined as 47% and the pest or weed control at 200 ppm is 85%.
In the case of `Cn1cc(C(=O)Nc2ccc(F)cc2C2(C)CCCCC2)c(C(F)F)n1` [Example 95, 1H-pyrazole-4-carboxamide, 3-(difluoromethyl)-N-[4-fluoro-2-(1-methylcyclohexyl)phenyl]-1-methyl-], in the assay with Botrytis cinerea [1], the “Disease Control Rating at 500 ppm” value is 0. The IC50 at succinate dehydrogenase was found to be 0.64 µM. The “Disease Control Rating at 0.5 mg/mL” value in the assay with Rhizoctonia solani was found to be 0. For the same molecule, in the assay with Botrytis cinerea [2], the pest or weed control at 50 ppm came out at 48% and the pest or weed control at 200 ppm came out at 26%.
Turning to `Cc1ccc(OC2CCCCC2)c(NC(=O)c2cn(C)nc2C(F)F)c1` [Example 96, 1H-pyrazole-4-carboxamide, N-[2-(cyclohexyloxy)-5-methylphenyl]-3-(difluoromethyl)-1-methyl-], in the assay on Botrytis cinerea [1], the “Disease Control Rating at 500 ppm” value was found to be 0. The IC50 at succinate dehydrogenase was determined as 0.43 µM. For the same molecule, the “Disease Control Rating at 0.5 mg/mL” value with Rhizoctonia solani turned out to be 0. For the same molecule, in the assay with Botrytis cinerea [2], the pest or weed control at 50 ppm worked out at 0% and the pest or weed control at 200 ppm is 0%.
Take `Cn1cc(C(=O)Nc2cc(F)ccc2C2CCCCC2)c(C(F)F)n1` [Example 16, 1H-pyrazole-4-carboxamide, N-(2-cyclohexyl-5-fluorophenyl)-3-(difluoromethyl)-1-methyl-]: the “Disease Control Rating at 500 ppm” value with Botrytis cinerea [1] was found to be 1. The IC50 at succinate dehydrogenase was determined as 0.024 µM. Besides, the “Disease Control Rating at 0.5 mg/mL” value in the assay with Rhizoctonia solani was 1. Moreover, in the assay with Botrytis cinerea [2], the pest or weed control at 50 ppm was determined as 15% and the pest or weed control at 200 ppm worked out at 57%.
Take `Cn1cc(C(=O)Nc2ccccc2C2=CCC(C(C)(C)C)CC2)c(C(F)(F)F)n1` (stereo not drawn) [Example 133, 1H-pyrazole-4-carboxamide, N-[2-[4-(1, -dimethylethyl)-1-cyclohexen-1-yl]phenyl]-1-methyl-3-(trifluoromethyl)-]: in the assay on Botrytis cinerea [1], the “Disease Control Rating at 20 ppm” value is reported as 0, the “Disease Control Rating at 100 ppm” value is recorded as 0 and the “Disease Control Rating at 500 ppm” value is given as 1. Also, the IC50 at succinate dehydrogenase came out at 0.0046 µM. Further, in the assay on Rhizoctonia solani, the “Disease Control Rating at 0.02 mg/mL” value is recorded as 1, the “Disease Control Rating at 0.1 mg/mL” value is 2 and the “Disease Control Rating at 0.5 mg/mL” value is 3. Also, in the assay on Botrytis cinerea [2], the pest or weed control at 50 ppm stood at 39% and the pest or weed control at 200 ppm came out at 36%.
For `C=C(c1ccccc1NC(=O)c1cn(C)nc1C(F)(F)F)C1CCCC1` [Example 34, 1H-pyrazole-4-carboxamide, N-[2-(1-cyclopentylethenyl)phenyl]-1-methyl-3-(trifluoromethyl)-], in the assay on Botrytis cinerea [1], the “Disease Control Rating at 20 ppm” value came to 0, the “Disease Control Rating at 100 ppm” value was found to be 2 and the “Disease Control Rating at 500 ppm” value came out at 2. For the same molecule, at succinate dehydrogenase, the IC50 was determined as 0.0059 µM. In the assay on Rhizoctonia solani, the “Disease Control Rating at 0.02 mg/mL” value came out at 2, the “Disease Control Rating at 0.1 mg/mL” value was determined as 3 and the “Disease Control Rating at 0.5 mg/mL” value is recorded as 3. Further, in the assay with Botrytis cinerea [2], the pest or weed control at 50 ppm came out at 44% and the pest or weed control at 200 ppm turned out to be 11%.
Regarding `Cn1cc(C(=O)Nc2ccccc2SC2CCCCC2)c(C(F)(F)F)n1` [Example 45, 1H-pyrazole-4-carboxamide, N-[2-(cyclohexylthio)phenyl]-1-methyl-3-(trifluoromethyl)-], the “Disease Control Rating at 500 ppm” value with Botrytis cinerea [1] is reported as 0. For the same molecule, on succinate dehydrogenase, the IC50 turned out to be 0.092 µM. Moreover, the “Disease Control Rating at 0.5 mg/mL” value with Rhizoctonia solani came to 0. Besides, in the assay with Botrytis cinerea [2], the pest or weed control at 50 ppm was 7% and the pest or weed control at 200 ppm stood at 12%.
On to `Cn1cc(C(=O)Nc2ccccc2OC2CCCCC2)c(C(F)F)n1` [Example 22, 1H-pyrazole-4-carboxamide, N-[2-(cyclohexyloxy)phenyl]-3-(difluoromethyl)-1-methyl-], for which the “Disease Control Rating at 500 ppm” value with Botrytis cinerea [1] was 0. The IC50 at succinate dehydrogenase came out at 0.0071 µM. In addition, the “Disease Control Rating at 0.5 mg/mL” value with Rhizoctonia solani stood at 0. In the assay on Botrytis cinerea [2], the pest or weed control at 50 ppm was 24% and the pest or weed control at 200 ppm stood at 22%.
With `Cc1nn(C)c(Cl)c1C(=O)Nc1ccccc1[C@@H]1C[C@H]2CC[C@@H]1C2` (relative stereo) [Example 106, 1H-pyrazole-4-carboxamide, N-(2-bicyclo[2.2.1]hept-2-ylphenyl)-5-chloro-1,3-dimethyl-, exo-], in the assay on Botrytis cinerea [1], the “Disease Control Rating at 500 ppm” value is given as 0. Further, on succinate dehydrogenase, the IC50 amounted to 0.094 µM. In addition, in the assay on Rhizoctonia solani, the “Disease Control Rating at 0.02 mg/mL” value is reported as 2, the “Disease Control Rating at 0.1 mg/mL” value is given as 3 and the “Disease Control Rating at 0.5 mg/mL” value is given as 3. In addition, in the assay on Botrytis cinerea [2], the pest or weed control at 50 ppm was 9% and the pest or weed control at 200 ppm came to 3%.
In the case of `Cn1nc(C(F)F)c(C(=O)Nc2ccccc2C2CCCCCC2)c1F` [Example 115, 1H-pyrazole-4-carboxamide, N-(2-cycloheptylphenyl)-3-(difluoromethyl)-5-fluoro-1-methyl-], in the assay with Botrytis cinerea [1], the “Disease Control Rating at 20 ppm” value was 1, the “Disease Control Rating at 100 ppm” value stood at 2 and the “Disease Control Rating at 500 ppm” value amounted to 3. Besides, at succinate dehydrogenase, the IC50 is 0.0065 µM. Also, in the assay with Rhizoctonia solani, the “Disease Control Rating at 0.02 mg/mL” value is reported as 3, the “Disease Control Rating at 0.1 mg/mL” value is recorded as 3 and the “Disease Control Rating at 0.5 mg/mL” value was found to be 3. Further, in the assay on Botrytis cinerea [2], the pest or weed control at 50 ppm is 42% and the pest or weed control at 200 ppm came to 95%.

The values above are taken from patent publication US5223526A, “Pyrazole carboxanilide fungicides and use” (Monsanto Company, priority 1992, dated 1993).
